Read-outs that look alike come from different tables or passages of the source.
Legend:
Cytochrome P450 1A2 = Cytochrome P450 1A2 (Homo sapiens (Human), UniProt P05177); assay type: in vitro ADME
Source text: (§1) Rapid screening for cytochrome P450 inhibitors is part of the current paradigm for avoiding development of drugs likely to give clinical pharmacokinetic drug-drug interactions and associated toxicities. There are commercially available assays for such screenings. For example, BD Biosciences (http://www.bdbiosciences.com/index.shtml) provides a technical bulletin describing a detailed, step-by-step procedure for the performance of the high throughput cytochrome P450 inhibition testing method.

P. falciparum Dd2 = test: Inhibition of in vitro P. falciparum culture, [3H]-hypoxanthine uptake, Dd2; assay type: cell-based; settings: Plasmodium falciparum; for EC50: DD2, Table 2b, read-out: Dd2 EC50; for IC50: DD2, Table 3, [3H]-hypoxanthine uptake, read-out: Dd2 IC50
In short: (§2)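 Parasite growth inhibition measured as relative reduction of [3H]-hypoxanthine uptake in in vitro cultures. Values from non-linear regression fit, using relative growth velocity in place of product-formation rate.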

Cytochrome P450 2C19 = Cytochrome P450 2C19 (Homo sapiens (Human), UniProt P33261); test: Cytochrome P450 inhibition, 2C19; assay type: in vitro ADME
Chain of Cytochrome P450 2C19 (P33261 whole entry): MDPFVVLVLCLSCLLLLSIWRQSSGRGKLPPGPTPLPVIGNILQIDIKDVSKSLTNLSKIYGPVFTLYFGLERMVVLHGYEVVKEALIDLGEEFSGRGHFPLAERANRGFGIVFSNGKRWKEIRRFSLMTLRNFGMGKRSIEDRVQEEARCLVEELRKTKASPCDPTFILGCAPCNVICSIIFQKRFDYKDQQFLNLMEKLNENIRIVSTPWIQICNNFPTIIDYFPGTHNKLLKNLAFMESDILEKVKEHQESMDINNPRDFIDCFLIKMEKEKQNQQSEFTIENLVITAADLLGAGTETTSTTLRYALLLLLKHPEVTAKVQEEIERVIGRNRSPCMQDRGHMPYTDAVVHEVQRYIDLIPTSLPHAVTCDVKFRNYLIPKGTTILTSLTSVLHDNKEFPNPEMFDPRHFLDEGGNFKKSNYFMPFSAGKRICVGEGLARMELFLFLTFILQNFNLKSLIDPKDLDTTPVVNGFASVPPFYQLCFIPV
Source text: as §1

P. falciparum 3D7 = test: Inhibition of in vitro P. falciparum culture, [3H]-hypoxanthine uptake, 3D7; assay type: cell-based; settings: Plasmodium falciparum; for EC50: 3D7, Table 2b, read-out: 3D7 EC50; for IC50: 3D7, Table 3, [3H]-hypoxanthine uptake, read-out: 3D7 IC50
In short: as §2

pfDHODH = pfDHODH (Plasmodium falciparum (isolate 3D7), UniProt Q08210); test: DHODH chromogen reduction (DCIP) assay, pfDHODH; assay type: biochemical, P. falciparum; settings: read-out: pfDHODH IC50
Chain of pfDHODH (Q08210 159-565 limits assumed): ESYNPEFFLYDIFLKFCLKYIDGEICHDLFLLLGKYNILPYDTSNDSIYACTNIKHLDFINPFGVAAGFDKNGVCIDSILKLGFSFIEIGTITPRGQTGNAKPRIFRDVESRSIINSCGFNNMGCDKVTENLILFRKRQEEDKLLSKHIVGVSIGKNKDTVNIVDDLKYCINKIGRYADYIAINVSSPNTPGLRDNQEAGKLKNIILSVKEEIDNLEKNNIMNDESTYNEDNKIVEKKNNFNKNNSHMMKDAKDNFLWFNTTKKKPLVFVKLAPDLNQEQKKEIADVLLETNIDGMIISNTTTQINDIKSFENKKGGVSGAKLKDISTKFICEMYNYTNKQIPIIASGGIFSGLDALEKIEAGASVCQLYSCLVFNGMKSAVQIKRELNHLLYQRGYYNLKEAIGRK

Cytochrome P450 2C9 = Cytochrome P450 2C9 (Homo sapiens (Human), UniProt P11712); test: Cytochrome P450 inhibition, 2C9; assay type: in vitro ADME
Chain of Cytochrome P450 2C9 (P11712 whole entry): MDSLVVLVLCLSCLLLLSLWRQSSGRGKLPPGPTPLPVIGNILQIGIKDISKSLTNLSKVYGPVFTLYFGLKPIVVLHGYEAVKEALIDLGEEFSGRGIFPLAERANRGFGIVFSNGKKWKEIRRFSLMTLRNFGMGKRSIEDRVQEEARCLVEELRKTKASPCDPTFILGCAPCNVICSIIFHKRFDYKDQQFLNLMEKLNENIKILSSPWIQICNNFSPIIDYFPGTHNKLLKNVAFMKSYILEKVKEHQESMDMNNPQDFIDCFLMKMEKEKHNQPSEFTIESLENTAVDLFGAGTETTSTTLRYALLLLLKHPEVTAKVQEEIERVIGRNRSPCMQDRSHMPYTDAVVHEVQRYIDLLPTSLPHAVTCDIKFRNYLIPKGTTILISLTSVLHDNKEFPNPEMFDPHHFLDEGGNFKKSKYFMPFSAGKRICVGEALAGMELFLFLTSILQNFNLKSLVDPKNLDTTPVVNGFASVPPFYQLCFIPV
Source text: as §1

Cytochrome P450 2D6 = Cytochrome P450 2D6 (Homo sapiens (Human), UniProt P10635); test: Cytochrome P450 inhibition, 2D6; assay type: in vitro ADME
Chain of Cytochrome P450 2D6 (P10635 whole entry): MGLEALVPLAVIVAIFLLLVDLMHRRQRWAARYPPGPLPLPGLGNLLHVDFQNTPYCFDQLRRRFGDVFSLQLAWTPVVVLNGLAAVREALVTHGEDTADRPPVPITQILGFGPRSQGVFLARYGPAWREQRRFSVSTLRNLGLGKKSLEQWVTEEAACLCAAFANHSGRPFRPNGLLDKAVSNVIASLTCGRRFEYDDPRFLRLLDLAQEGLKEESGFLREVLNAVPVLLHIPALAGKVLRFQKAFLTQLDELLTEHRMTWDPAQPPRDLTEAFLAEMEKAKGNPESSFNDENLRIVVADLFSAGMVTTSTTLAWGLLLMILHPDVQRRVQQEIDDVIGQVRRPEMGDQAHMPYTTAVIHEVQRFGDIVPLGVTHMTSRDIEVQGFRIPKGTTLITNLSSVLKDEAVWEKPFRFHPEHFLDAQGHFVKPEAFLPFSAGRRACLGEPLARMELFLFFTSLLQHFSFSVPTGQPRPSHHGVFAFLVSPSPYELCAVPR
Source text: as §1

Cytochrome P450 3A4 = Cytochrome P450 3A4 (Homo sapiens (Human), UniProt P08684); test: Cytochrome P450 inhibition, 3A4; assay type: in vitro ADME
Chain of Cytochrome P450 3A4 (P08684 whole entry): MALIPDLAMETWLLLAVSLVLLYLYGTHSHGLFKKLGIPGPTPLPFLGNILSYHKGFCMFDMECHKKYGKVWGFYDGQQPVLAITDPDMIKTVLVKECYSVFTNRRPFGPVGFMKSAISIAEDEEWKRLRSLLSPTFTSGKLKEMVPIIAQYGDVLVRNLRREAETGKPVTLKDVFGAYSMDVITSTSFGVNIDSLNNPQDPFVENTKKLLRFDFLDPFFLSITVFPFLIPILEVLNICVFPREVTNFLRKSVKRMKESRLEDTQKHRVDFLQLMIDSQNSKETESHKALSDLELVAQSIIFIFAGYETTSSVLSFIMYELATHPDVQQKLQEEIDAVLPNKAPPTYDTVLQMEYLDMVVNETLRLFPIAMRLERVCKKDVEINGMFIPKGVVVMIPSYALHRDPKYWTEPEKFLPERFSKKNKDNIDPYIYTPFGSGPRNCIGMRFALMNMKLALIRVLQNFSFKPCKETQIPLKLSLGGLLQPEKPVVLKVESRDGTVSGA
Source text: as §1

Log D measurement = assay type: physicochemical; settings: octanol/water; read-out: LogD
Source text: Many standard techniques are known in the art to establish the distribution coefficient of a compound between two particular solvents. The following description is one such technique that could be used to determine the distribution coefficient: The shake-flask method, which consists of dissolving some of the compound in a volume of octanol and water, then physically shaking the mixture and allowing the two solvents to fully separate. The concentration of the compound in each solvent is then measured. The most common method of measuring the distribution of the solute is by HPLC or UV/Vis spectroscopic techniques.

Permeability = assay type: in vitro ADME; settings: Caco-2
Description: Permeability assays using the Caco-2 colon carcinoma cell line are being used throughout the pharmaceutical industry to estimate the ability of potential drug compounds to cross the intestinal epithelium. Caco-2 cell permeability studies are performed using Caco-2 cell monolayers grown on microporous membranes in multiwell insert systems. With the inserts suspended in the wells of multiwell plates, test compounds can be added to either the upper (apical) or lower (basolateral) chamber to measure permeability in the absorptive (apical to basolateral) or secretive (basolateral to apical) directions. Samples are then taken from the opposite chamber at various time intervals to measure the amount of test compound that has crossed the cell monolayer. A representative method to generate permeability data similar to that in Table 3 can be found in Alsenz, J; Haenel, E. “Development of a 7-Day, 96-Well Caco-2 Permeability Assay with High-Throughput Direct UV Compound Analysis.” Pharmaceutical Research 2003 20(12): p 1961-1969.
Parallel artificial membrane permeability assay (PAMPA) utilizes a simple phospholipid-coated filter disc to measure membrane permeability. It was developed as an alternative to the low throughput. Caco-2 cell permeability assay used to correlate passive permeability with in vivo oral absorption. A representative publication disclosing this method is Kerns, E H; Di, L; Petusky, S; Farris, M; Ley, R; Jupp, P. “Combined application of parallel artificial membrane permeability assay and Caco-2 permeability assays in drug discovery.” J. Pharma Sci. 2004, 93 (6), pages 1440-53.
Cell culture methods (e.g. Caco-2, HT-29 and MDC) and physicochemical methods such as PAMPA and immobilized artificial membrane (IAM) columns are known in the art and can be used to obtain data such as that in Table 3. Hidalgo, I J; “Assessing the absorption of new pharmaceuticals.” Curr Top Med. Chem. 2001 November; 1(5): p 385-401.

Hepatic clearance, rat = assay type: in vitro ADME
Source text: (§3) Clearance of drug by the liver will depend on the rate of delivery of drug to the liver (the hepatic blood flow) and on the efficiency of removal of drug which is presented to it (the extraction ratio). The hepatic clearance of compounds can be determined by standard methods known in the art. Such methods are described in, for example, Naritomi, Y; Terashita, S; Kagayama, A; Sugiyama, Y. “Utility of Hepatocytes in Predicting Drug Metabolism: Comparison of Hepatic Intrinsic Clearance in Rats and Humans in Vivo and in Vitro.” 2003, 31 (5): pages 580-588.

hsDHODH = hsDHODH (Homo sapiens (Human), UniProt Q02127); test: DCIP assay, hsDHODH; assay type: biochemical; settings: Table 3; DCIP assay, 20 nM hsDHODH; read-out: hsDHODH IC50
Chain of hsDHODH (Q02127 29-395 limits assumed): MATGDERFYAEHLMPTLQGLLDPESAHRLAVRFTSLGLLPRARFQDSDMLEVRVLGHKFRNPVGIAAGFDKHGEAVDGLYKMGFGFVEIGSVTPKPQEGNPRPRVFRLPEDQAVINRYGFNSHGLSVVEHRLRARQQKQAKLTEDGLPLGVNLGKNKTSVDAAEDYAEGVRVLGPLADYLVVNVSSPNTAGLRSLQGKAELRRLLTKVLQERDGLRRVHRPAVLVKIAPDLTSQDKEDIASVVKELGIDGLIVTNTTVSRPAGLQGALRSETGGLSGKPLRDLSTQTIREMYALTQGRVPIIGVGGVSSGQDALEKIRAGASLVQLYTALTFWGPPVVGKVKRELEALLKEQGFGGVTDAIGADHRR
Source text: Type 2 DHODH activity was monitored with either the direct assay measuring the formation of orotate or via a chromogen reduction assay using DCIP. Although the extinction coefficient and absorption wavelength are preferable for the chromogen reduction assay, the inorganic electron acceptor DCIP can be utilized by DHODH as the final electron acceptor in lieu of CoQn when the endogenous substrate is at a low concentration. As such, the direct assay was used to measure the binding affinity of pfDHODH to CoQD and L-DHO. The enzymatic reaction was performed by varying the L-DHO concentration (1-400 μM) or CoQD concentration (1-200 μM) while keeping the other substrate constant and in excess. The formation of orotate was measured continuously at 296 nm (ε296=4.3 mM^−1 cm^−1). Inhibition of DHODH by small molecules was evaluated using the chromogen based assay with a final substrate concentration of 200 μM L-DHO, 18 μM CoQD, and 100 μM DCIP, unless otherwise noted. The reduction of DCIP was monitored at 600 nm (ε600=18.8 mM^−1 cm^−1).
Substrate specificity and enzyme inhibition data was analyzed with GraphPad Prism Version 4 for Windows (GraphPad Software). Kinetic constants were calculated by non-linear regression fitting of the data to the Michaelis-Menten equation [36]. IC50 values were determined by non-linear regression fitting of the data to Equation 1: […]

Solubility measurement = assay type: physicochemical; settings: aqueous buffer, thermodynamic from solid; read-out: Solubility
Source text: Many standard techniques are known in the art to establish the solubility of a compound in a particular solvent. The following description is one such technique that could be used to determine the solubility: Equilibrium solubility measurements start with the solid form of the compound (crystalline form preferred). The powder is physically mixed with an aqueous buffer (defined pH) until equilibrium is reached. Either centrifugation or filtration can be used to separate the solution from the remaining solid. The amount dissolved in the solution can be determined by any one of many known methods including HPLC or UV/Vis spectroscopic techniques.

Hepatic clearance, human = assay type: in vitro ADME
Source text: as §3

[1] = Table 3, DCIP assay, 20 nM pfDHODH

Chain of Cytochrome P450 1A2 (P05177 whole entry): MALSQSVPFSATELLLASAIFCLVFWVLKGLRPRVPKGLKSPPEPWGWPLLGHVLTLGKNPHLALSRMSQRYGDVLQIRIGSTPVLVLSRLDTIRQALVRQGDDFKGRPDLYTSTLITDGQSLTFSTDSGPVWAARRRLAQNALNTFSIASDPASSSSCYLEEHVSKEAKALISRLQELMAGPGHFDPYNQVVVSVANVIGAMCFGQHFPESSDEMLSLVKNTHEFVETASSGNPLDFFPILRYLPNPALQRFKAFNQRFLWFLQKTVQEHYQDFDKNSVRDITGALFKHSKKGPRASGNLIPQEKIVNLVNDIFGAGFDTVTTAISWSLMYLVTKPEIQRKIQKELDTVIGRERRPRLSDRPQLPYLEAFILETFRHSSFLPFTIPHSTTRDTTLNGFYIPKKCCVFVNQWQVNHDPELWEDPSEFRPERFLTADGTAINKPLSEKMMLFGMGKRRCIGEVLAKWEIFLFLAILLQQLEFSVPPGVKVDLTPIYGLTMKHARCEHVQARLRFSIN

| Structure (SMILES) | Cytochrome P450 Inhibition, 1A2 (Cytochrome P450 1A2) [in 1A2 μM] | EC50 (P. falciparum Dd2) [µM] | IC50 (P. falciparum Dd2) [µM] | Cytochrome P450 Inhibition, 2C19 (Cytochrome P450 2C19) [in 2C19 μM] | EC50 (P. falciparum 3D7) [µM] | IC50 (P. falciparum 3D7) [µM] | IC50 (pfDHODH; Table 2b) [µM] | IC50 (pfDHODH; [1]) [µM] | Cytochrome P450 Inhibition, 2C9 (Cytochrome P450 2C9) [in 2C9 μM] | Cytochrome P450 Inhibition, 2D6 (Cytochrome P450 2D6) [in 2D6 μM] | Cytochrome P450 Inhibition, 3A4 (Cytochrome P450 3A4) [in 3A4 μM] | logD (Log D measurement) | Papp (Permeability) [×10⁻⁶ cm/s] | microsomal CLint (Hepatic clearance, rat) [µL/min/mg] | IC50 (hsDHODH) [µM] | solubility (Solubility measurement) [µg/mL] | microsomal CLint (Hepatic clearance, human) [µL/min/mg] |
| --- | --- | --- | --- | --- | --- | --- | --- | --- | --- | --- | --- | --- | --- | --- | --- | --- | --- |
| CCCNC(=O)c1ccc(N2CCCCC2)s1 [Compound 8, 5-(piperidin-1-yl)-N-propylthiophene-2-carboxamide] | >5.0 | > 10 | > 10 | >5.0 | > 10 | > 10 | 230 | > 30 | >5.0 | >5.0 | >5.0 | 3.2 | 43 | > 119 | > 30 | > 30 | > 72 |
| CCCNC(=O)c1ccc(-n2cccn2)s1 [Compound 9, N-propyl-5-(1H-pyrazol-1-yl)thiophene-2-carboxamide] | >5.0 | > 10 | > 10 | >5.0 | > 10 | > 10 | > 250 | > 30 | >5.0 | >5.0 | >5.0 | 2.2 | 22 | 104 | > 30 | > 30 | 59 |

From patent publication US8703811B2, “Small molecule inhibitors of Plasmodium falciparum dihydroorotate dehydrogenase” (Genzyme Corporation, priority 2008, dated 2014)
